Reference: patent US10647708B2, “Tetrahydroisoquinoline derived PRMT5-inhibitors” (CTXT PTY LTD, priority 2014, dated 2020)

How the values were obtained:
[1] = target: Full-length PRMT5 enzyme co-expressed with MEP50 (Homo sapiens (Human), UniProt O14744); assay: Revised PRMT5 Biochemical Assay; details: 1 μM peptide substrate, 1 μM S-Adenosyl methionine, 4 hours at 37 degree Celsius, Transcreener EPIGEN fluorescence polarisation
Method: Compounds of the invention may be tested for in vitro activity in the following assay: A histone H4 derived peptide is used as substrate (amino acid sequence: […]NH2). Full-length PRMT5 enzyme (NCBI Reference sequence NP_006100.2) was co-expressed with Hiss-MEP50 in insect cells and purified via Nickel immobilized metal affinity and gel filtration chromatography (“the enzyme”).
The 6 μL reactions are run in Greiner brand black 384-well low volume assay plates. All reactions contained assay buffer (phosphate buffered saline, 0.01% (v/v) Tween-20, 0.01% (w/v) albumin from chicken egg white, 1 mM Dithiothreitol, 1 μM peptide substrate, 1 μM S-Adenosyl methionine, and 15 ng/reaction enzyme, with the enzyme being omitted from negative control reactions. Compounds were added in a volume of 100 nL from dilution series prepared in DMSO, positive and negative control reactions receiving the same volume DMSO without compound. The plates were sealed with adhesive seals and incubated for 4 hours at 37 degree Celsius. Reaction progress was measured using the Transcreener™ EPIGEN methyltransferase assay (BellBrook Labs, Madison, Wis.) as recommended by the manufacturer. To each reaction 2 μL detection mix were added, containing coupling enzymes, fluorescence polarisation tracer, and AMP antibody. Plates were incubated for 90 minutes before being read on a PerkinElmer EnVision™ plate reader in fluorescence polarisation mode. IC50 values were obtained from the raw readings by calculating percent inhibition (% I) for each reaction relative to controls on the same plate (% I=(I−CN)/(CP−CN) where CN/CP are the averages of the negative/positive reactions, respectively), then fitting the % I data vs. compound concentration [I] to % I=(A+((B−A)/(1+((C/[I])^D)))) where A is the lower asymptote, B is the upper asymptote, C is the IC50 value, and D is the slope.

[2] = tested on: symmetrical dimethylation of arginine (Histone H4 Arginine 3) in cell line TE11; assay: Revised PRMT5 Biomarker Assay; format: cell-based; details: TE11 cells, 72 hours incubation, anti-Di-Methyl Histone H4 Arginine 3 immunofluorescence, plate-reader based
Method: Compounds of the invention may be tested for potency to inhibit symmetrical dimethylation of arginine in the following assay:
The cell line TE11 was seeded at a density of 6,000 cells per well in 96 well optical quality tissue culture plates in DME medium and 10% foetal bovine serum, and allowed to adhere for 5 hours under standard culture conditions (37 degree Celsius, 5% CO2). Compound dilutions prepared in DMSO were added to the medium, with negative control wells reserved for treatment with DMSO only and positive controls receiving a potent PRMT5 inhibitor compound at 1 μM concentration. After incubation for 72 hours, the cells were fixed with 3.7% formaldehyde in PBS for 30 minutes at room temperature, washed with phosphate buffer saline and blocked with Odyssey blocking buffer (LI-COR, Lincoln, Nebr.). Rabbit anti-Di-Methyl Histone H4 Arginine 3 specific antibody (Epigentek) in Odyssey blocking buffer was added and incubated for 14 hours at 4 degree Celsius. After washing, anti-rabbit secondary antibody labelled with Alexa647 dye (LifeTechnologies) and Hoechst 33342 (1 μg/mL, SigmaAldrich) were added for 1 hour incubation. Plates were washed and read on a PerkinElmer Envision 2103 in fluorescence intensity scanning mode (24 scans across the well area). The methylation level information was corrected for the number of cells as expressed by the Hoechst 33342 stain, converted to percent inhibition relative to controls on the same plate and the data fitted against a four-parameter logistic model to determine the 50% inhibitory concentration (IC50 plate-reader based). Alternatively, the plates were imaged on a PerkinElmer Phenix high content imaging platform. Using a Columbus image analysis pipeline, individual nuclei were located by Hoechst 33342 stain and the methylation level was calculated from the Alexa647-related intensity in the same area. The resulting mean intensity per cell was directly converted to percent inhibition as outlined above (IC50, imager based)).

Sequence of Full-length PRMT5 enzyme co-expressed with MEP50 (O14744 whole entry): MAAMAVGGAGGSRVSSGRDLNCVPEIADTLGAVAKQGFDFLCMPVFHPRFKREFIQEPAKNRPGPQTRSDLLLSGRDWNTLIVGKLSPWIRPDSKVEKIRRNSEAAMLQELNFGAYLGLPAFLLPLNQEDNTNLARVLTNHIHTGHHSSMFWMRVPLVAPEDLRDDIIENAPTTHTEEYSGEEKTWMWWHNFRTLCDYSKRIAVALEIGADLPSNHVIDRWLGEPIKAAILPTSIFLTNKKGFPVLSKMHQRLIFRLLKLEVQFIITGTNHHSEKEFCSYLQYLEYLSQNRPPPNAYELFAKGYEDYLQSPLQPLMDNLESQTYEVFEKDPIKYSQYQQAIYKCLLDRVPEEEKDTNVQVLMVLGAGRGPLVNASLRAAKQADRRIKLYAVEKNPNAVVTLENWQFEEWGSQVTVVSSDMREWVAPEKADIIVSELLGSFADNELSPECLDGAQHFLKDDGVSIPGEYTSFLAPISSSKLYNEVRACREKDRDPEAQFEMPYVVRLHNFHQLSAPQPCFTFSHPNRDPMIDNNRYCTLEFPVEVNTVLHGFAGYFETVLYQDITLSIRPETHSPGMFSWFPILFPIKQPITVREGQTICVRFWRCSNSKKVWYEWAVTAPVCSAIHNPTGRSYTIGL
Sequence of Full-length PRMT5 enzyme co-expressed with MEP50 (Q9BQA1 whole entry partner): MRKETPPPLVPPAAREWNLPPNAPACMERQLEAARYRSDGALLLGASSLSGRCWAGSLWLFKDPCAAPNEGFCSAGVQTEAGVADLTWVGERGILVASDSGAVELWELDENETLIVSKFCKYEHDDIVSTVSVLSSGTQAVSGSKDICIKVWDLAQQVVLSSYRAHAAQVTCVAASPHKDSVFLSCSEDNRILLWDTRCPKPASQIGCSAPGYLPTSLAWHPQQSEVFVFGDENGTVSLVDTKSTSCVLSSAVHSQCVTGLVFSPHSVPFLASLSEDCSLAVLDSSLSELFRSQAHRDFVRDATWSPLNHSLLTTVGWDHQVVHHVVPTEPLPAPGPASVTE

| IC50 [1] [µM] | IC50 ([2]; Homo sapiens, TE-11) [µM] | IC50 [2] [µM] | SMILES |
| --- | --- | --- | --- |
| 1.13 |  |  | O=C(NCCC(O)CN1CCc2ccccc2C1)c1ccc(S(=O)(=O)C(F)(F)F)cc1 (stereo not shown) [Compound 2] |
| 0.925 |  |  | O=C(NCCC(O)CN1CCc2ccccc2C1)c1ccc([S+]([O-])C(F)(F)F)cc1 (stereo not shown) [Compound 3] |
| 51.7 |  |  | CS(=O)(=O)c1ccccc1OCC(=O)NCCC(O)CN1CCc2ccccc2C1 (stereo not shown) [Compound 4] |
| 1.33 |  |  | O=C(NCCC(O)CN1CCc2ccccc2C1)c1ccc(C(F)(F)F)cc1 (stereo not shown) [Compound 5] |
| 13.1 |  |  | O=C(NCCC(O)CN1CCc2ccccc2C1)c1ccc(N2CCCCC2=O)cc1 (stereo not shown) [Compound 6] |
| 1.94 |  |  | COc1ccc(-n2cc(C(=O)NCCC(O)CN3CCc4ccccc4C3)cn2)cc1 (stereo not shown) [Compound 7] |
| 3.09 |  |  | COc1ccc(-c2cc(C(=O)NCCC(O)CN3CCc4ccccc4C3)on2)cc1 (stereo not shown) [Compound 8] |
| 4.35 |  |  | O=C(NCCC(O)CN1CCc2ccccc2C1)c1ccc2oc(=O)[nH]c2c1 (stereo not shown) [Compound 9] |
| 3.98 |  |  | Cc1nonc1COc1ccc(C(=O)NCCC(O)CN2CCc3ccccc3C2)cc1 (stereo not shown) [Compound 10] |
| 39.2 |  |  | O=C(NCCC(O)CN1CCc2ccccc2C1)c1nnc(-c2ccccc2)o1 (stereo not shown) [Compound 11] |
| 1.59 |  |  | O=C(NCCC(O)CN1CCc2ccccc2C1)c1ccn(Cc2ccccc2)c(=O)c1 (stereo not shown) [Compound 12] |
| 7.09 |  |  | Cc1c(C(=O)NCCC(O)CN2CCc3ccccc3C2)cnn1-c1ccncc1 (stereo not shown) [Compound 13] |
| 0.91 |  |  | O=C(NCCC(O)CN1CCc2ccccc2C1)c1ccc(N2CCOCC2)nc1 (stereo not shown) [Compound 14] |
| 13 |  |  | N#Cc1cccc(C(=O)NCCC(O)CN2CCc3ccccc3C2)c1 (stereo not shown) [Compound 16] |
| 15 |  |  | O=C(NCCC(O)CN1CCc2ccccc2C1)c1cccnc1 (stereo not shown) [Compound 17] |
| 9.79 |  |  | O=C(NCCC(O)CN1CCc2ccccc2C1)c1cccc(Cl)c1 (stereo not shown) [Compound 18] |
| 0.319 | 0.089 |  | O=C(NCCC(O)CN1CCc2ccccc2C1)c1ccc(OC(F)(F)F)cc1 (stereo not shown) [Compound 19] |
| 0.214 | 0.505 |  | O=C(NCCC(O)CN1CCc2ccccc2C1)c1ccc(S(F)(F)(F)(F)F)cc1 (stereo not shown) [Compound 20] |
| 0.415 |  |  | O=C(NCCC(O)CN1CCc2ccccc2C1)c1ccc(OC(F)F)cc1 (stereo not shown) [Compound 21] |
| 7.02 |  |  | CS(=O)(=O)c1ccc(C(=O)NCCC(O)CN2CCc3ccccc3C2)cc1 (stereo not shown) [Compound 22] |
| 1.69 |  |  | O=C(NCCC(O)CN1CCc2ccccc2C1)c1ccc2c(c1)OC(F)(F)O2 (stereo not shown) [Compound 23] |
| 25.4 |  |  | Cc1cccc(C(=O)NCCC(O)CN2CCc3ccccc3C2)n1 (stereo not shown) [Compound 24] |

| IC50 [1] [µM] | IC50 ([2]; Homo sapiens, TE-11) [µM] | IC50 [2] [µM] | SMILES |
| --- | --- | --- | --- |
| 6.35 |  |  | O=C(NCCC(O)CN1CCc2ccccc2C1)c1cccc(-c2ccnnc2)c1 (stereo not shown) [Compound 25] |
| 3.75 |  |  | C[S+]([O-])c1ccc(C(=O)NCCC(O)CN2CCc3ccccc3C2)cc1 (stereo not shown) [Compound 26] |
| 5.62 |  |  | COc1ccc(C(=O)NCCC(O)CN2CCc3ccccc3C2)cc1-c1cncnc1 (stereo not shown) [Compound 27] |
| 12.3 |  |  | O=C(NCCC(O)CN1CCc2ccccc2C1)c1cnn(-c2ccccn2)c1 (stereo not shown) [Compound 28] |
| 10.8 |  |  | Cn1ccc(C(=O)NCCC(O)CN2CCc3ccccc3C2)cc1=O (stereo not shown) [Compound 29] |
| 3.12 |  |  | O=C(NCCC(O)CN1CCc2ccccc2C1)c1ccc(C(=O)N2CCCC2)cc1 (stereo not shown) [Compound 30] |
| 3.16 |  |  | O=C(NCCC(O)CN1CCc2ccccc2C1)c1ccc(C(=O)N2CCC2)cc1 (stereo not shown) [Compound 31] |
| 3.54 |  |  | CN(C)C(=O)c1ccc(C(=O)NCCC(O)CN2CCc3ccccc3C2)cc1 (stereo not shown) [Compound 32] |
| 7.45 |  |  | Cc1c(C(=O)NCCC(O)CN2CCc3ccccc3C2)cnn1-c1ccccn1 (stereo not shown) [Compound 33] |
| 56.1 |  |  | O=C(NCCC(O)CN1CCc2ccccc2C1)c1noc(-c2ccccc2)n1 (stereo not shown) [Compound 34] |
| 1.21 |  |  | O=C(NCCC(O)CN1CCc2ccccc2C1)c1coc(-c2ccccc2)n1 (stereo not shown) [Compound 35] |
| 1.2 | 0.023 |  | Cc1nn(C)cc1-c1cc(C(=O)NCCC(O)CN2CCc3ccccc3C2)no1 (stereo not shown) [Compound 36] |
| 1.19 |  |  | Cn1cc(-c2cc(C(=O)NCCC(O)CN3CCc4ccccc4C3)no2)cn1 (stereo not shown) [Compound 37] |
| 2.88 |  |  | O=C(NCCC(O)CN1CCc2ccccc2C1)c1ccnn1-c1cccnc1 (stereo not shown) [Compound 38] |
| 1.22 |  |  | Cc1nnc(-c2cccc(C(=O)NCCC(O)CN3CCc4ccccc4C3)c2)o1 (stereo not shown) [Compound 39] |
| 0.769 | 0.048 |  | O=C(NCCC(O)CN1CCc2ccccc2C1)c1ccc(-c2ccccc2)cc1 (stereo not shown) [Compound 40] |
| 5.29 |  |  | O=C(NCCC(O)CN1CCc2ccccc2C1)c1cccc(-c2ccccc2)c1 (stereo not shown) [Compound 41] |
| 2.83 |  |  | Cc1nnc(-c2ccc(C(=O)NCCC(O)CN3CCc4ccccc4C3)cc2)o1 (stereo not shown) [Compound 42] |
| 106 |  |  | O=C(NCCC(O)CN1CCc2ccccc2C1)c1cncc(Cl)n1 (stereo not shown) [Compound 43] |
| 13.7 |  |  | O=C(NCCC(O)CN1CCc2ccccc2C1)c1ccnc(Cl)c1 (stereo not shown) [Compound 44, 2-Chloro-N-(4-(3,4-dihydroisoquinolin-2(1H)-yl)-3-hydroxybutyl)isonicotinamide] |
| 5.23 |  |  | O=C(NCCC(O)CN1CCc2ccccc2C1)c1cccc(C(=O)N2CCOCC2)c1 (stereo not shown) [Compound 45, N-(4-(3,4-dihydroisoquinolin-2(1H)-yl)-3-hydroxybutyl)-3-(morpholine-4-carbonyl)benzamide] |
| 0.186 |  | 0.007 | CC(=O)N1CCC(Nc2cc(C(=O)NCCC(O)CN3CCc4ccccc4C3)ccn2)CC1 (stereo not shown) [Compound 46] |
